target: Epidermal growth factor receptor (Homo sapiens) (UniProt P00533); assay: Inhibition of wild-type EGFR (unknown origin) assessed as enzyme residual activity at 10 uM for 60 mins by microplate scintillation counter in presence of [gamma-33P]-ATP
Sequence (P00533 whole entry): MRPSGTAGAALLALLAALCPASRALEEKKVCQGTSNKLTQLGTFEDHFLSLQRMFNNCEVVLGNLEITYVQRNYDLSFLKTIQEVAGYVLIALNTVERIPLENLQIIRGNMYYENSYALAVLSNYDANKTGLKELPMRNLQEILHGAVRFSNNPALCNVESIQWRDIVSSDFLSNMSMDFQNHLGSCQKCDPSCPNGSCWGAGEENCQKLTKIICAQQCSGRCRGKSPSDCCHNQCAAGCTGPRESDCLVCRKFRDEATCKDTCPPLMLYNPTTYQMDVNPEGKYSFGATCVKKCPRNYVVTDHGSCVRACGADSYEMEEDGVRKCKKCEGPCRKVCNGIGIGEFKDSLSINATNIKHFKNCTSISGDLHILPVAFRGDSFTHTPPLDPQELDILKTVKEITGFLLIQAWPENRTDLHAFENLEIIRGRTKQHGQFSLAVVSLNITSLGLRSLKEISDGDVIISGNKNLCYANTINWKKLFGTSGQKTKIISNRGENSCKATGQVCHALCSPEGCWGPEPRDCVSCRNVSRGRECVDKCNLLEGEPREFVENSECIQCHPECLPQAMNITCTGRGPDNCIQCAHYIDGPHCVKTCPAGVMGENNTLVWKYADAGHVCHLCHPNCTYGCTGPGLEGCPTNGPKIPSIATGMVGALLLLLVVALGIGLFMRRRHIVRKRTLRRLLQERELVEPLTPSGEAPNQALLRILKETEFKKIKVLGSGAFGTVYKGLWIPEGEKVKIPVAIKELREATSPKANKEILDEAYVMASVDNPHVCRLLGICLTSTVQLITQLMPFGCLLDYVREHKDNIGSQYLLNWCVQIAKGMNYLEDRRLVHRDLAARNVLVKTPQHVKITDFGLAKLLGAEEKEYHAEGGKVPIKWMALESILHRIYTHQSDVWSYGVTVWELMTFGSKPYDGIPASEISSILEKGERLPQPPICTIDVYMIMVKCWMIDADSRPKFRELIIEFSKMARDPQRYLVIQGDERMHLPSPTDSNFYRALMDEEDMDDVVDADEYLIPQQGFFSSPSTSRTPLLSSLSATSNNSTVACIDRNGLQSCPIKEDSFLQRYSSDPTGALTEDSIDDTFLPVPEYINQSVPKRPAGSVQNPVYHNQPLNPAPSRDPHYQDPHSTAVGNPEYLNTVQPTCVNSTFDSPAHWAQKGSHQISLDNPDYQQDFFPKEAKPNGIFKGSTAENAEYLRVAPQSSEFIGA

Activity | SMILES
3% | Cn1c(=O)c(-c2c(Br)cccc2Br)cc2c(N)nc(Nc3ccccc3)nc21
61% | Cn1c(=O)c(-c2c(F)cccc2C(F)(F)F)cc2c(N)nc(Nc3ccccc3)nc21
49% | Cn1c(=O)c(-c2ccccc2)cc2c(N)nc(Nc3ccccc3)nc21
14% | Cn1c(=O)c(-c2c(Cl)cccc2Cl)cc2c(N)nc(Nc3ccccc3)nc21

From ChEMBL document CHEMBL3751720, “Investigating molecular dynamics-guided lead optimization of EGFR inhibitors” (Bioorg Med Chem, 2016)
